According to patent publication US20120141461A1, “COMPOSITIONS AND METHODS FOR DIAGNOSING AND TREATING FIBROTIC DISORDERS” (THE REGENTS OF THE UNIVERSITY OF MICHIGAN, priority 2009, published 2012):

Experiments:
[1] = tested on: C57BL/6 mice; experiment: Murine model of bleomycin-induced lung injury/fibrosis; format: in vivo, mouse
Experimental: RNA was extracted and expression of NOX4 mRNA analyzed by real-time PCR; (b) C57BL/6 mice were administered intra-tracheal (IT) bleomycin on day 0.
C57BL/6J mice (6-8 weeks of age; Jackson Laboratories, Bar Harbor, Me.) were anesthetized with intraperitoneal injection of ketamine and xylazine. Intra-tracheal bleomycin (0.025 U) or FITC (4.67 mg/ml suspension in PBS) was administered to induce lung injury. The University of Michigan Committee on the Use and Care of Animals approved the animal protocols.
(§1) For in vitro RNAi, cells were transfected with single duplexes targeting NOX4 or non-targeting control siRNA (100 nM) using Lipofectamine-2000 reagent. For in vivo RNAi studies, NOX4 siRNA or control nontargeting siRNA (Dharmacon Inc.) were administered at a dose of ˜50 μg per mouse by intratracheal injection with bleomycin, FITC, or saline, in a total volume of 50 μl using a 26-gauge needle.
(§2) Cell lysates were prepared in RIPA buffer, subjected them to SDS-PAGE under reducing conditions and performed western immunoblotting as previously described (Horowitz et al. J Biol Chem 279, 1359-1367 (2004), herein incorporated by reference in its entirety).
Acid-soluble collagen was measured in cell culture supernatants or whole lung homogenates using the Sircol assay as previously described (Vittal et al. Am J Pathol 166, 367-375 (2005), herein incorporated by reference in its entirety).
Murine whole lungs were homogenized in PBS, then acidified (by adding an equal volume of 12 N HCl), hydrolyzed (by heating at 120° C. for 24 h), and processed samples for hydroxyline measurements as previously described 29. Lung histology and immunohistochemical staining Paraffin embedded tissue sections were processed for lung histology and immunohistochemical staining as previously described described (Vittal et al. Am J Pathol 166, 367-375 (2005), herein incorporated by reference in its entirety).

[2] = tested on: human fetal lung mesenchymal cells (hFLMCs); experiment: Myofibroblast differentiation markers in hFLMCs in 3D-collagen matrix, Western immunoblotting; format: cell-based; conditions: catalase 750 U/ml, TGF-β1 2 ng/ml x 16 h
Experimental: (§3) Collagen gels were reconstituted by mixing 1 part of 3 mg/ml neutralized rat tail collagen type 1 and two parts of cell suspension in serum-free media. Cell suspensions were seeded at a density of 200,000 cells per ml into 24-well tissue culture plates and allowed the gels to polymerize at 37° C. for 1 h before adding 1 ml of media. Gels were incubated overnight prior to treatments, and gently detached the edge of the gels from the walls of the well using a sterile spatula. Gels were photographed and gel area was measured using ImageJ (NIH) software.
as §1, §2

[3] = tested on: human fetal lung mesenchymal cells (hFLMCs); experiment: TGF-β1-induced collagen gel contractility of hFLMCs in 3D-collagen matrices; format: cell-based; conditions: catalase at 750 U/ml
Experimental: as §3

[4] = DPI 1.6 mg/kg daily intra-peritoneal on days 8 to 21, day 21

| Molecule | protection from fibrosis, acid-soluble collagen in whole lung ([1]; DPI 1.6 mg/kg daily intra-peritoneal on days 8 to 21, Sircol assay on day 21) | expression of NOX4 and α-SMA expressing myofibroblasts (IHC) [1, 4] | fibrosis by histopathology and Masson's trichrome staining for collagen [1, 4] | fibronectin synthesis induced by TGF-β1 [2] | upregulation of α-smooth muscle actin (α-SMA) induced by TGF-β1 [2] | TGF-β1-induced collagen gel contractility [3] |
| --- | --- | --- | --- | --- | --- | --- |
| c1ccc2c(c1)[I+]c1ccccc1-2 [DPI, diphenyleneiodonium chloride] | significant protection from fibrosis | reduced expression | reduced fibrosis |  |  |  |
| catalase: an enzyme which reduces H2O2 to H2O (protein, UniProt P04040 2-527, looked up) Catalase: ADSRDPASDQMQHWKEQRAAQKADVLTTGAGNPVGDKLNVITVGPRGPLLVQDVVFTDEMAHFDRERIPERVVHAKGAGAFGYFEVTHDITKYSKAKVFEHIGKKTPIAVRFSTVAGESGSADTVRDPRGFAVKFYTEDGNWDLVGNNTPIFFIRDPILFPSFIHSQKRNPQTHLKDPDMVWDFWSLRPESLHQVSFLFSDRGIPDGHRHMNGYGSHTFKLVNANGEAVYCKFHYKTDQGIKNLSVEDAARLSQEDPDYGIRDLFNAIATGKYPSWTFYIQVMTFNQAETFPFNPFDLTKVWPHKDYPLIPVGKLVLNRNPVNYFAEVEQIAFDPSNMPPGIEASPDKMLQGRLFAYPDTHRHRLGPNYLHIPVNCPYRARVANYQRDGPMCMQDNQGGAPNYYPNSFGAPEQQPSALEHSIQYSGEVRRFNTANDDNVTQVRAFYVNVLNEEQRKRLCENIAGHLKDAQIFIQKKAVKNFTEVHPDYGSHIQALLDKYNAEKPKNAIHTFVQSGSHLAAREKANL |  |  |  | inhibited | inhibited | inhibited |
